{"source": "patent EP0000804A1", "about": "“Process for the preparation of ethers of clavulanic acid” (BEECHAM GROUP PLC, priority 1977, dated 1979)", "assay_in_all_cases": "Minimum inhibitory concentration (MIC) in vitro, β-lactamase inhibitory activity demonstration", "format_in_all_cases": "cell-based", "key": {"[1]": {"tested_on": "E. coli JT39", "settings": "Escherichia coli, compound alone, no ampicillin, read-out: MIC EC, Compound alone", "experimental": "(§1) The minimum inhibitory concentrations (MIC) of certain compounds of this invention and of ampicillin, alone or in the presence of compounds of the invention, were determined in vitro for a range of micro-organisms."}, "[2]": {"tested_on": "Klebsiella aerogenes E70", "settings": "compound alone, no ampicillin, read-out: MIC KA, Compound alone", "experimental": "as §1"}, "[3]": {"tested_on": "Proteus mirabilis C889", "settings": "compound alone, no ampicillin", "experimental": "as §1"}, "[4]": {"tested_on": "Staphylococcus aureus Russell", "settings": "compound alone, no ampicillin, read-out: MIC SAR, Compound alone", "experimental": "as §1"}}, "data": [{"smiles": "C=COC/C=C1\\O[C@@H]2CC(=O)N2[C@H]1C(=O)O", "note": "[Example 10, Lithium 9-0-vinyl-clavulanate]", "values": [{"measurement": "MIC", "setting": "[1]", "result": 31.2, "unit": "µg/mL"}, {"measurement": "MIC", "setting": "[2]", "result": 31.2, "unit": "µg/mL"}, {"measurement": "MIC", "setting": "[3]", "result": 62.5, "unit": "µg/mL"}, {"measurement": "MIC", "setting": "[4]", "result": 15.6, "unit": "µg/mL"}]}, {"smiles": "C=COC/C=C1\\O[C@@H]2CC(=O)N2[C@H]1C(=O)OC", "note": "[Example 8, Methyl 9-0-vinylclavulanate]", "values": [{"measurement": "MIC", "setting": "[1]", "result": 500, "unit": "µg/mL"}, {"measurement": "MIC", "setting": "[2]", "result": 500, "unit": "µg/mL"}, {"measurement": "MIC", "setting": "[3]", "result": 250, "unit": "µg/mL"}, {"measurement": "MIC", "setting": "[4]", "result": 125, "unit": "µg/mL"}]}]}
